Assay results reported in PubChem BioAssay (NCI).
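Growth conditions: 96-well plates. Treatment: test compound, 48 hours, 5 concentrations. Analysis: linear interpolation between bracketing concentrations; unreached endpoints set to highest concentration. At the GI50, growth is halved. Definition used: TGI = concentration required for complete inhibition of growth.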

Legend:
Test in all cases: growth of human tumour cells (NCI), 48 h
MALME-3M melanoma = system: MALME-3M melanoma
DU-145 prostate = system: DU-145 prostate
HT29 colon = system: HT29 colon
KM12 colon = system: KM12 colon
NCI-H460 lung = system: NCI-H460 lung
HS 578T breast = system: HS 578T breast
NCI-H23 lung = system: NCI-H23 lung
HCC-2998 colon = system: HCC-2998 colon
U251 CNS = system: U251 CNS
IGROV1 ovarian = system: IGROV1 ovarian

SMILES | TGI (MALME-3M melanoma) | TGI (DU-145 prostate) | TGI (HT29 colon) | TGI (KM12 colon) | TGI (NCI-H460 lung) | TGI (HS 578T breast) | TGI (NCI-H23 lung) | TGI (HCC-2998 colon) | TGI (U251 CNS) | TGI (IGROV1 ovarian) | GI50 (MALME-3M melanoma) | GI50 (DU-145 prostate) | GI50 (HT29 colon) | GI50 (KM12 colon) | GI50 (HCC-2998 colon) | GI50 (NCI-H460 lung) | GI50 (HS 578T breast) | GI50 (U251 CNS) | GI50 (IGROV1 ovarian) | GI50 (NCI-H23 lung)
COc1ccc2[nH]c3c([N+](=O)[O-])ccc(Cl)c3c(=O)c2c1 | 40.4 µM | > 100 µM | 32.2 µM | > 73.4 µM | > 95.4 µM | > 100 µM | > 52.8 µM | > 71.2 µM | > 64.1 µM | 18.6 µM |  |  |  |  |  |  |  |  |  | 
O=Nc1ccc(O)c2ncccc12 | 25.6 µM | 65.9 µM | 34.6 µM | 20.4 µM | 12.8 µM | 3.66 µM | 3.04 µM | 31.1 µM | 14.5 µM | 18.9 µM |  |  |  |  |  |  |  |  |  | 
CCN=C=NCCCN(C)C | > 100 µM | > 100 µM | > 100 µM | > 100 µM | > 100 µM | > 100 µM | > 100 µM |  | > 100 µM | > 100 µM |  |  |  |  |  |  |  |  |  | 
C/C1=N\NC(=O)c2ccccc2C(=O)N/N=C(\C)c2cccc1n2.O=[N+]([O-])[O-].[Zn+2] | > 100 µM |  | > 100 µM | > 100 µM | > 100 µM |  | > 100 µM | > 100 µM | > 100 µM | > 100 µM |  |  |  |  |  |  |  |  |  | 
N=C(N)c1ccc(-c2ccc(-c3cncc4ccccc34)s2)cc1F | 3.51 µM | 3.45 µM | 4.48 µM | 3.51 µM |  |  |  |  |  |  | 1.74 µM | 1.86 µM | 1.68 µM | 1.83 µM |  |  |  |  |  | 
OC(Cc1ccccc1)(Cc1ccccc1)c1ccccc1 | 27.1 µM | 32.3 µM | 34.9 µM | 33.3 µM | 44.4 µM |  | 38.4 µM |  | 32.8 µM | 33.7 µM |  |  |  |  |  |  |  |  |  | 
Nc1ccc(OCC(O)N2C(=O)c3ccccc3C2=O)cc1 (stereo not drawn) | > 100 µM | > 100 µM | > 100 µM |  | > 100 µM |  |  | > 100 µM | > 100 µM | > 100 µM |  |  |  |  |  |  |  |  |  | 
O=S(=O)(O)c1cc(N=Nc2cc(S(=O)(=O)O)c3ccccc3c2O)ccc1/C=C/c1ccc(N=Nc2cc(S(=O)(=O)O)c3ccccc3c2O)cc1S(=O)(=O)O | > 494 µM | 712 µM | > 740 µM | > 365 µM | > 881 µM | 756 µM | 975 µM | > 1000 µM | > 1000 µM | > 873 µM |  |  |  |  | > 1000 µM |  |  |  |  | 
COc1cc(C(C)(C)C)cc(OC)c1C(O)(c1c(OC)cc(C(C)(C)C)cc1OC)c1c(OC)cc(C(C)(C)C)cc1OC | 0.683 µM |  | 0.877 µM | 1.05 µM | 0.853 µM |  |  | 1.36 µM | 1.23 µM | 0.873 µM | 0.234 µM |  | 0.224 µM | 0.349 µM | 0.429 µM | 0.288 µM | 0.711 µM | 0.0636 µM | 0.316 µM | 
C=C(CN(C)C)C(=O)c1ccc(C)cc1C | 20.2 µM | 33.5 µM | 36.6 µM | 31 µM | 46.9 µM | > 79 µM | 27.3 µM | 31.5 µM | 47.8 µM | 17.7 µM |  |  |  |  |  |  |  |  |  | 
Cc1ccc(P(c2ccc(C)cc2)c2ccc(C)cc2)cc1 | 42.4 µM | 40.1 µM | > 100 µM | 60.9 µM | 36.5 µM | 57 µM | > 100 µM | 36 µM | 43 µM | 53.6 µM |  |  |  |  |  |  |  |  |  | 
CC(C)(C)C1(c2ccc(C3(c4ccccc4)Oc4ccccc4S3)[nH]2)Oc2ccccc2S1 (stereo not drawn) | > 100 µM |  | > 100 µM |  | > 100 µM |  | > 100 µM | > 100 µM | > 100 µM | > 100 µM |  |  |  |  |  |  |  |  |  | 
O=C(O)CC(C(=O)O)C1c2ccccc2-c2ccccc21 (stereo not drawn) | > 100 µM | > 100 µM | > 100 µM | > 100 µM | > 100 µM | > 100 µM | > 100 µM | > 100 µM | > 100 µM | > 100 µM |  |  |  |  |  |  |  |  |  | 
COC1/C=C\OC2(C)Oc3c(C)c(O)c4c(O)c(c(/C=N\OCCCc5ccccc5)c(O)c4c3C2=O)NC(=O)/C(C)=C\C=C/C(C)C(O)C(C)C(O)C(C)C(OC(C)=O)C1C (stereo not drawn) | 12 µM | 15.7 µM | 11.3 µM | 14 µM | 15.6 µM | 25.2 µM | 10 µM | 25.6 µM | 16 µM | 6.74 µM |  |  |  |  |  |  |  |  |  | 
c1ccc(-n2cnnc2-c2nsc3ccccc23)cc1 |  |  | > 100 µM | > 100 µM | > 100 µM |  | > 100 µM | > 100 µM | > 100 µM | > 100 µM |  |  |  |  |  |  |  |  |  | 
Nc1cc(S(=O)(=O)O)cc2cc(S(=O)(=O)O)c(N=Nc3ccc(-c4ccc(N=Nc5c(S(=O)(=O)O)cc6cc(S(=O)(=O)O)cc(N)c6c5O)cc4)cc3)c(O)c12 | > 100 µM |  | > 100 µM | > 100 µM | > 100 µM |  | > 100 µM | > 100 µM | > 100 µM | > 100 µM |  |  |  |  |  |  |  |  |  | 
O=[N+]([O-])c1ccc(/C=N\Nc2ccc([N+](=O)[O-])cn2)cc1 | > 100 µM | > 100 µM | > 100 µM | > 100 µM | > 100 µM | > 100 µM | > 100 µM | > 100 µM | > 100 µM | > 100 µM |  |  |  |  |  |  |  |  |  | 
C=C(C)[C@@H]1CC[C@]2(C(=O)Nc3ccccn3)CC[C@]3(C)[C@H](CC[C@@H]4[C@@]5(C)CCCNC(C)(C)[C@@H]5CC[C@]43C)[C@@H]12 | 2.84 µM | 3.42 µM |  | 3.36 µM | 3.3 µM | 4.42 µM | 3.77 µM |  |  |  | 1.44 µM | 1.81 µM |  | 1.82 µM |  | 1.71 µM | 1.92 µM |  |  | 1.85 µM
CCN(CC)C(=S)SC(=S)N(CC)CC | > 58.4 µM | > 100 µM |  | 64.2 µM | > 100 µM | > 100 µM | > 80.6 µM | > 100 µM | > 100 µM | > 100 µM |  |  |  |  |  |  |  |  |  | 
Nc1nc(N)c2ncn(-c3ccc(Cl)c(Cl)c3)c2n1 | 49.2 µM | > 100 µM | 58.1 µM | 97.5 µM |  | 42.4 µM | 40.4 µM | > 100 µM | > 100 µM | 64.6 µM |  |  |  |  |  |  |  |  |  | 
C=C(C)C(=O)OC1C(C(C)CCCO)=C(CO)CC2OC(=O)C(=C)C21 (stereo not drawn) | 17.8 µM | 27.8 µM | 45.9 µM | 27.7 µM | 37.8 µM | > 100 µM | 43 µM | 31.8 µM | 45.3 µM | 38.8 µM |  |  |  |  |  |  |  |  |  | 
C=C(C)C1CC2=C(O1)C(=O)c1ccccc1C2=O (stereo not drawn) |  |  | 38.4 µM | 33.4 µM | 33.8 µM |  | 45.1 µM | 39.3 µM | 30.2 µM | 36.1 µM |  |  |  |  |  |  |  |  |  | 
COc1ccc(-c2nn(-c3ccc(NC(=O)Nc4ccc(Cl)c(Cl)c4)cc3)cc2-c2ccncc2)cc1Cl | 8.47 µM | > 100 µM | > 100 µM | > 100 µM | 8.54 µM | 7.63 µM | > 100 µM | > 100 µM | > 100 µM | > 100 µM | 2.47 µM | 3.97 µM | 2.55 µM | 2.13 µM | 2.78 µM | 2.14 µM | 1.42 µM | 1.36 µM | 3.44 µM | 2.22 µM
CC(C)=CCc1c(O)ccc2c1OC1c3ccc(O)c(CC=C(C)C)c3OCC21 (stereo not drawn) | 33.6 µM |  | > 61.9 µM | 33.7 µM | 16.1 µM |  | > 55.1 µM | 26 µM | 21.3 µM | 25.8 µM |  |  |  |  |  |  |  |  |  | 
